According to EP3889132B1, “MONOACYLGLYCEROL LIPASE (MAGL) INHIBITORS” (Università di Pisa, priority 2020, dated 2021):

Legend:
[1] = molecular target: T1, recombinant human MAGL enzyme (Homo sapiens, UniProt Q99685); assay: In vitro screening of activity on the recombinant human MAGL enzyme (4-NPA substrate, absorbance 405 nm); assay type: biochemical; conditions: substrate 4-NPA, room temperature, 30 minutes
T1 construct: purchased Cayman Chemical 10007812
T1 sequence (Q99685 1-303): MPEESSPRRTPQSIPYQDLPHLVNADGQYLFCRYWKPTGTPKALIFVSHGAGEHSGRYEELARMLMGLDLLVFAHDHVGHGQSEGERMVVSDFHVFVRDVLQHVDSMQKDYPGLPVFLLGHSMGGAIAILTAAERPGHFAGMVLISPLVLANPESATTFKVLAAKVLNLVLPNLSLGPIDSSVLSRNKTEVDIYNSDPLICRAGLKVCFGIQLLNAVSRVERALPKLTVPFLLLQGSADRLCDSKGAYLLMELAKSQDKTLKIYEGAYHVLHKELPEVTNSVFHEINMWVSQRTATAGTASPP
Protocol: The compound 4-nitrophenyl acetate (4-NPA Merck-Sigma Aldrich, 8430750025) was used as a substrate for the recombinant human MAGL enzyme (Cayman Chemical, 10007812). IC50 values were generated in microplates containing 96 wells. The catalytic reaction was carried out at room temperature, at a final volume of 200 µL in 10 mM Tris buffer at pH 7.2 containing 1 mM EDTA and 0.1 mg/ml BSA. A total of 150 µL of 4-NPA 133.3 µM in ethanol was added to 10 µL of DMSO containing the appropriate amount of compound (500 - 0.00256 µM). The reaction began with the addition of 40 µL of the MAGL enzyme (11 ng/well). […] After the reaction continued for 30 minutes, the absorbance values were then measured using a Victor X3 (PerkinElmer®) microplate reader at a wavelength of 405 nm. Two other analyzes were also performed in parallel: one reaction without compounds and the second containing neither compound nor enzyme. […] The IC50 values were calculated from the experimental data (absorbance) through the construction of dose-response curves.

[2] = molecular target: T1, recombinant human MAGL enzyme; assay: Enzymatic kinetics experiments with scalar concentrations of 4-NPA (Michaelis-Menten, mixed-model inhibition fit); assay type: biochemical; conditions: compound 1-0.125 µM, 4-NPA 15-1400 µM
Protocol: In enzymatic kinetics experiments, compound 15 was tested in the presence of scalar concentrations of […]. It was added in staggered amounts (concentration range = 1-0.125 µM in DMSO) to a reaction mix containing staggered concentrations of 4-NPA (15-1400 µM in ethanol). Finally, the buffer solution containing the recombinant human MAGL enzyme (11 ng/well) was added. The enzymatic activity was measured at room temperature by recording the increase in absorbance corresponding to the increase in the concentration of […] using a Victor X3 microplate reader (PerkinElmer®). The absorbance was converted into enzymatic rate by making appropriate use of positive and negative controls. The experimental data were analyzed by […] regression analysis applying the inhibition fit of the mixed model (Fig. 1).

HCT116 = assay: Cell viability assay (CellTiter-Glo) HCT116; assay type: cell-based; conditions: Homo sapiens, HCT-116; cell viability after 96 hours; read-out: IC50 (µM, mean ± SD) HCT116
Protocol: (§1) The following tumor cell lines, MDA-MB-231 (Cell Biolabs AKR-231), HCT116 (ATCC® CCL-247), CAOV3 (ATCC® HTB-75), OVCAR3 (ATCC® HTB-161) and SKOV3 (ATCC® HTB-77) were kept at 37 °C in a humidified atmosphere containing 5% CO2 according to the supplier. Cells (5 x 10^2) were plated in 96-well culture plates. The day after plating, the compounds were dissolved in DMSO and added at different concentrations to the medium (final DMSO concentration < 5%). The compounds were added to the cell culture at a concentration between 200 and 0.02 µM. Cell viability was measured after 96 hours with the CellTiter-Glo® Luminescent Cell Viability Assay kit in accordance with the supplier Promega (G7571) with a Tecan M1000 instrument. IC50 values were calculated from dose-response curves. The means were obtained from the triplicates (Table 2). Table 2. Cell viability inhibition activity (IC50, µM) of compound 15.

CAOV3 = assay: Cell viability assay (CellTiter-Glo) CAOV3; assay type: cell-based; conditions: Homo sapiens, Caov-3; cell viability after 96 hours; read-out: IC50 (µM, mean ± SD) CAOV3
Protocol: as §1

[3] = molecular target: T1, recombinant human MAGL enzyme; assay: MAGL dilution assay with the recombinant human MAGL enzyme; assay type: biochemical; conditions: 20 µM vs 40X dilution (final 0.5 µM) vs 0.5 µM (Fig. 3)
Protocol: […] The mixture containing the inhibitor and the enzyme was then diluted 40 times with the buffer solution. After 15 minutes of incubation, the reaction was started in a 160 µL aliquot with the addition of 40 µL of 4-NPA 500 µM in buffer and the enzyme activity was measured according to the procedure described above.
The % of inhibition of the MAGL enzyme was calculated from the measured absorbance. The absorbance measured in the presence of only enzyme with vehicle and without compound was considered as absence of inhibition (positive control), while the absorbance measured in the wells with only vehicle without enzyme and without compound was considered as 100% inhibition (negative control). Intermediate absorbance values with respect to these two extremes indicate enzymatic inhibition and are calculated as the difference between the absorbance value in the well with the compound and the absorbance value of the negative control, all scaled as a percentage considering as the maximum value the negative control and minimum value of minimum inhibition the positive control.
In dilution experiments, if compound 15 were an irreversible inhibitor, its inhibitory potency should not decrease upon dilution.

OVCAR3 = assay: Cell viability assay (CellTiter-Glo) OVCAR3; assay type: cell-based; conditions: Homo sapiens, OVCAR-3; cell viability after 96 hours; read-out: IC50 (µM, mean ± SD) OVCAR3
Protocol: as §1

SKOV3 = assay: Cell viability assay (CellTiter-Glo) SKOV3; assay type: cell-based; conditions: Homo sapiens, SK-OV-3; cell viability after 96 hours; read-out: IC50 (µM, mean ± SD) SKOV3
Protocol: as §1

MDA-MB-231 = assay: Cell viability assay (CellTiter-Glo) MDA-MB-231; assay type: cell-based; conditions: Homo sapiens, cell viability after 96 hours, read-out: IC50 (µM, mean ± SD) MDA-MB-231
Protocol: as §1

CCCCCCCCC(=O)Nc1cc(-c2ccc(O)c(F)c2)ccc1O [Compound 5, N-(3'-Fluoro-4,4'-dihydroxy-[1,1'-biphenyl]-3-yl)nonanamide]
IC50 [1]: 2.9 ± 0.1 µM

O=C(Nc1cc(-c2ccc(O)c(F)c2)ccc1O)c1ccccc1 [Compound 12, N-(3'-Fluoro-4,4'-dihydroxy-[1,1'-biphenyl]-3-yl)benzamide]
IC50 [1]: 6.9 ± 0.4 µM

CCCCCC(=O)Nc1cc(-c2ccc(O)c(F)c2)ccc1O [Compound 2, N-(3'-Fluoro-4,4'-dihydroxy-[1,1'-biphenyl]-3-yl)hexanamide]
IC50 [1]: 3.2 ± 0.2 µM

O=C(CCCc1ccccc1)Nc1cc(-c2ccc(O)c(F)c2)ccc1O [Compound 15, N-(3'-Fluoro-4,4'-dihydroxy-[1,1'-biphenyl]-3-yl)-4-phenylbutanamide]
Ki [2]: 0.146 µM
IC50 (HCT116): 14 ± 2 µM
IC50 (CAOV3): 34 ± 4 µM
Inhibition mechanism from percentage of inhibition after 40X dilution [3]: reversible inhibition
IC50 (OVCAR3): 75 ± 4 µM
IC50 (SKOV3): 16 ± 2 µM
IC50 (MDA-MB-231): 75 ± 6 µM
IC50 [1]: 0.34 ± 0.01 µM

CCCCCCC(=O)Nc1cc(-c2ccc(O)c(F)c2)ccc1O [Compound 3, N-(3'-Fluoro-4,4'-dihydroxy-[1,1'-biphenyl]-3-yl)eptanamide]
IC50 [1]: 1.1 ± 0.1 µM

O=C(CCc1ccccc1)Nc1cc(-c2ccc(O)c(F)c2)ccc1O [Compound 14, N-(3'-Fluoro-4,4'-dihydroxy-[1,1'-biphenyl]-3-yl)-3-phenylpropanamide]
IC50 [1]: 2 ± 0.1 µM

CCCCCCCC(=O)Nc1cc(-c2ccc(O)c(F)c2)ccc1O [Compound 4, N-(3'-Fluoro-4,4'-dihydroxy-[1,1'-biphenyl]-3-yl)octanamide]
IC50 [1]: 0.61 ± 0.03 µM

CCCCCCCCCCCC(=O)Nc1cc(-c2ccc(O)c(F)c2)ccc1O [Compound 7, N-(3'-Fluoro-4,4'-dihydroxy-[1,1'-biphenyl]-3-yl)dodecanamide]
IC50 [1]: 2.8 ± 0.3 µM

O=C(Cc1cccc2ccccc12)Nc1cc(-c2ccc(O)c(F)c2)ccc1O [Compound 17, N-(3'-Fluoro-4,4'-dihydroxy-[1,1'-biphenyl]-3-yl)-2-(naphtalen-1-yl)acetamide]
IC50 [1]: 1.9 ± 0.1 µM

CCCCCCCCCC(=O)Nc1cc(-c2ccc(O)c(F)c2)ccc1O [Compound 6, N-(3'-Fluoro-4,4'-dihydroxy-[1,1'-biphenyl]-3-yl)decanamide]
IC50 [1]: 1.1 ± 0.1 µM

CCCCCCCCCCCCCC(=O)Nc1cc(-c2ccc(O)c(F)c2)ccc1O [Compound 8, N-(3'-Fluoro-4,4'-dihydroxy-[1,1'-biphenyl]-3-yl)tetradecanamide]
IC50 [1]: 2.5 ± 0.4 µM

CC(C)C(=O)Nc1cc(-c2ccc(O)c(F)c2)ccc1O [Compound 10, N-(3'-Fluoro-4,4'-dihydroxy-[1,1'-biphenyl]-3-yl)isobutyramide]
IC50 [1]: 19.7 ± 1 µM

O=C(Cc1ccccc1)Nc1cc(-c2ccc(O)c(F)c2)ccc1O [Compound 13, N-(3'-Fluoro-4,4'-dihydroxy-[1,1'-biphenyl]-3-yl)-2-phenylacetamide]
IC50 [1]: 5.1 ± 0.5 µM

CCCCC(=O)Nc1cc(-c2ccc(O)c(F)c2)ccc1O [Compound 1, N-(3'-Fluoro-4,4'-dihydroxy-[1,1'-biphenyl]-3-yl)pentanamide]
IC50 [1]: 7.6 ± 0.1 µM

O=C(CCCCc1ccccc1)Nc1cc(-c2ccc(O)c(F)c2)ccc1O [Compound 16, N-(3'-Fluoro-4,4'-dihydroxy-[1,1'-biphenyl]-3-yl)-5-phenylpentanamide]
IC50 [1]: 1.1 ± 0.1 µM

CC(C)(C)C(=O)Nc1cc(-c2ccc(O)c(F)c2)ccc1O [Compound 11, N-(3'-Fluoro-4,4'-dihydroxy-[1,1'-biphenyl]-3-yl)pivalamide]
IC50 [1]: > 20 µM

CCCCCCCCCCCCCCCC(=O)Nc1cc(-c2ccc(O)c(F)c2)ccc1O [Compound 9, N-(3'-Fluoro-4,4'-dihydroxy-[1,1'-biphenyl]-3-yl)palmitamide]
IC50 [1]: > 20 µM
